Results published in PubChem BioAssay (NCI).
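GI50 is the concentration that inhibits growth by half. Definition used: TGI = concentration required for complete inhibition of growth.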

Legend:
Test in all cases: NCI anticancer screen, dose series, 384-well format; in the data active = GI50 below about 0.43 µM; inactive = the rest
CAKI-1 renal = system: CAKI-1 renal
SN12C renal = system: SN12C renal
SF-295 CNS = system: SF-295 CNS
HT29 colon = system: HT29 colon
OVCAR-5 ovarian = system: OVCAR-5 ovarian
OVCAR-4 ovarian = system: OVCAR-4 ovarian
EKVX NSCLC = system: EKVX NSCLC
HCC-2998 colon = system: HCC-2998 colon
TK-10 renal = system: TK-10 renal
U251 glioblastoma = system: U251 glioblastoma
KM12 colon = system: KM12 colon
786-0 renal = system: 786-0 renal
HCT-15 colon = system: HCT-15 colon
K-562 leukemia = system: K-562 leukemia
SNB-75 CNS = system: SNB-75 CNS
OVCAR-8 ovarian = system: OVCAR-8 ovarian
NCI/ADR-RES ovarian = system: NCI/ADR-RES ovarian
MDA-MB-231 breast = system: MDA-MB-231 breast
COLO 205 colon = system: COLO 205 colon
MCF7 breast = system: MCF7 breast
HS 578T breast = system: HS 578T breast
HOP-62 NSCLC = system: HOP-62 NSCLC
SK-MEL-28 melanoma = system: SK-MEL-28 melanoma
LOX IMVI melanoma = system: LOX IMVI melanoma
NCI-H23 lung = system: NCI-H23 lung
SW-620 colon = system: SW-620 colon
NCI-H322M lung = system: NCI-H322M lung
MDA-MB-435 melanoma = system: MDA-MB-435 melanoma
SF-268 CNS = system: SF-268 CNS
UACC-62 melanoma = system: UACC-62 melanoma
ACHN renal = system: ACHN renal
CCRF-CEM leukemia = system: CCRF-CEM leukemia
RXF 393 renal = system: RXF 393 renal
MOLT-4 leukemia = system: MOLT-4 leukemia
IGROV1 ovarian = system: IGROV1 ovarian
NCI-H226 lung = system: NCI-H226 lung
BT-549 breast = system: BT-549 breast
A549 NSCLC = system: A549 NSCLC
RPMI-8226 leukemia = system: RPMI-8226 leukemia
SK-OV-3 ovarian = system: SK-OV-3 ovarian
NCI-H522 lung = system: NCI-H522 lung
SF-539 CNS = system: SF-539 CNS
HCT-116 colon = system: HCT-116 colon
HL-60(TB) leukemia = system: HL-60(TB) leukemia
NCI-H460 NSCLC = system: NCI-H460 NSCLC
DU-145 prostate = system: DU-145 prostate
PC-3 prostate = system: PC-3 prostate
OVCAR-3 ovarian = system: OVCAR-3 ovarian
SK-MEL-5 melanoma = system: SK-MEL-5 melanoma
UO-31 renal = system: UO-31 renal
A498 renal = system: A498 renal
UACC-257 melanoma = system: UACC-257 melanoma
M14 melanoma = system: M14 melanoma
MALME-3M melanoma = system: MALME-3M melanoma
SNB-19 CNS = system: SNB-19 CNS
HOP-92 NSCLC = system: HOP-92 NSCLC
MDA-MB-468 breast = system: MDA-MB-468 breast

COc1ccccc1N1CCN(C(=O)c2ccc(NS(=O)(=O)c3cccc4cccnc34)cc2)CC1
42.9 µM: TGI (MDA-MB-435 melanoma)
23.6 µM: TGI (CCRF-CEM leukemia) | TGI (RPMI-8226 leukemia)
47.4 µM: TGI (SF-268 CNS)
> 100 µM: TGI (CAKI-1 renal) | TGI (SN12C renal) | TGI (SF-295 CNS) | TGI (HT29 colon) | TGI (OVCAR-5 ovarian) | TGI (OVCAR-4 ovarian) | TGI (EKVX NSCLC) | TGI (TK-10 renal) | TGI (U251 glioblastoma) | TGI (KM12 colon) | TGI (786-0 renal) | TGI (HCT-15 colon) | TGI (SNB-75 CNS) | TGI (OVCAR-8 ovarian) | TGI (NCI/ADR-RES ovarian) | TGI (MDA-MB-231 breast) | TGI (COLO 205 colon) | TGI (MCF7 breast) | TGI (HS 578T breast) | TGI (HOP-62 NSCLC) | TGI (SK-MEL-28 melanoma) | TGI (LOX IMVI melanoma) | TGI (NCI-H23 lung) | TGI (SW-620 colon) | TGI (NCI-H322M lung) | TGI (UACC-62 melanoma) | TGI (ACHN renal) | TGI (MOLT-4 leukemia) | TGI (IGROV1 ovarian) | TGI (NCI-H226 lung) | TGI (BT-549 breast) | TGI (A549 NSCLC) | TGI (SK-OV-3 ovarian) | TGI (SF-539 CNS) | TGI (HCT-116 colon) | TGI (DU-145 prostate) | TGI (PC-3 prostate) | TGI (SK-MEL-5 melanoma) | TGI (UO-31 renal) | TGI (A498 renal) | TGI (UACC-257 melanoma) | TGI (MALME-3M melanoma) | TGI (SNB-19 CNS) | TGI (HOP-92 NSCLC)
34.2 µM: TGI (NCI-H522 lung)
33.3 µM: TGI (HL-60(TB) leukemia)
56.1 µM: TGI (HCC-2998 colon)
inactive: GI50 (CAKI-1 renal) 74.5 µM | GI50 (SN12C renal) 61.3 µM | GI50 (SF-295 CNS) > 100 µM | GI50 (HT29 colon) > 100 µM | GI50 (OVCAR-5 ovarian) > 100 µM | GI50 (OVCAR-4 ovarian) > 100 µM | GI50 (EKVX NSCLC) 37.9 µM | GI50 (HCC-2998 colon) 12.7 µM | GI50 (TK-10 renal) > 100 µM | GI50 (U251 glioblastoma) 40.7 µM | GI50 (KM12 colon) > 100 µM | GI50 ([…]-0 renal) 40.8 µM | GI50 (HCT-15 colon) 28.9 µM | GI50 (K-562 leukemia) 10 µM | GI50 (SNB-75 CNS) > 100 µM | GI50 (OVCAR-8 ovarian) 28.1 µM | GI50 (NCI/ADR-RES ovarian) > 100 µM | GI50 (MDA-MB-231 breast) 63.5 µM | GI50 (COLO 205 colon) 31.5 µM | GI50 (MCF7 breast) 24.5 µM | GI50 (HS 578T breast) 25.9 µM | GI50 (HOP-62 NSCLC) 32.1 µM | GI50 (SK-MEL-28 melanoma) > 100 µM | GI50 (LOX IMVI melanoma) > 100 µM | GI50 (NCI-H23 lung) > 100 µM | GI50 (SW-620 colon) 44.8 µM | GI50 (NCI-H322M lung) 53.4 µM | GI50 (MDA-MB-435 melanoma) 20.4 µM | GI50 (SF-268 CNS) 13.7 µM | GI50 (UACC-62 melanoma) 58.6 µM | GI50 (ACHN renal) > 100 µM | GI50 (CCRF-CEM leukemia) 9.02 µM | GI50 (RXF 393 renal) 18.2 µM | GI50 (MOLT-4 leukemia) 4.05 µM | GI50 (IGROV1 ovarian) > 100 µM | GI50 (NCI-H226 lung) 8.48 µM | GI50 (BT-549 breast) 33 µM | GI50 (A549 NSCLC) 18.5 µM | GI50 (RPMI-8226 leukemia) 10.2 µM | GI50 (SK-OV-3 ovarian) 38.9 µM | GI50 (NCI-H522 lung) 16.8 µM | GI50 (SF-539 CNS) 32 µM | GI50 (HCT-116 colon) 32.8 µM | GI50 (HL-60(TB) leukemia) 18.2 µM | GI50 (NCI-H460 NSCLC) 14.1 µM | GI50 (DU-145 prostate) > 100 µM | GI50 (PC-3 prostate) 56 µM | GI50 (OVCAR-3 ovarian) 24.9 µM | GI50 (SK-MEL-5 melanoma) 7.09 µM | GI50 (UO-31 renal) > 100 µM | GI50 (A498 renal) 71.9 µM | GI50 (UACC-257 melanoma) > 100 µM | GI50 (M14 melanoma) 26.9 µM | GI50 (MALME-3M melanoma) > 100 µM | GI50 (SNB-19 CNS) 52.1 µM | GI50 (HOP-92 NSCLC) > 100 µM | GI50 (MDA-MB-468 breast) 4.03 µM
80.9 µM: TGI (RXF 393 renal)
31 µM: TGI (NCI-H460 NSCLC)
34.6 µM: TGI (K-562 leukemia)
81.4 µM: TGI (OVCAR-3 ovarian)
84.9 µM: TGI (M14 melanoma)
17.6 µM: TGI (MDA-MB-468 breast)
